Results published in patent US11298372B2, “Composition for ameliorating loss of hair and graying of hair, and use thereof” (National University Corporation Tokyo Medical and Dental …, priority 2016, dated 2022).

Columns and labels:
[1] = tested on: Col17A1; test: Induction of COL17A1 expression in HaCat cells (Western blotting); type: cell-based, human; details: 48 hours
Method: HaCat cells (human epidermal keratinocyte strain) were seeded in 10% FBS-containing D-MEM medium in a 6-well plate at 1×10^5 cells per well, and apocynin was added to be 1-60 μM. After 48 hours of culturing, an anti-Col17A1 antibody was used as the primary antibody, and Western blotting was carried out. An anti-GAPDH antibody was used as the internal control. The 180 KDa band of Col17A1 and the internal control GAPDH band were quantified for their densities using an LAS-3000 luminescence image analyzer. […] HaCat cells (human epidermal keratinocyte strain) were seeded in 10% FBS-containing D-MEM medium in a 6-well plate at 1×10^5 cells per well, and ascorbic acid (Wako Pure Chemical Industries, Ltd.) was added to be 0.3-60 jag/ml. After 48 hours of culturing, an anti-Col17A1 antibody was used as the primary antibody, and Western blotting was carried out. An anti-β-tubulin antibody was used as the internal control. The 180 KDa band of Col17A1 and the internal control β-tubulin band were quantified for their densities using an LAS-3000 luminescence image analyzer. […] HaCat cells (human epidermal keratinocyte strain) were seeded in 10% FBS-containing D-MEM medium in a 6-well plate at 1×10^5 cells per well, and Marimastat (MMP inhibitor) was added to be 3 μM. After 48 hours of culturing, an anti-Col17A1 antibody was used as the primary antibody, and Western blotting was carried out. An anti-β-tubulin antibody was used as the internal control. The 180 KDa band of Col17A1 and the internal control β-tubulin band were quantified for their densities using an LAS-3000 luminescence image analyzer.

[2] = tested on: irradiated mice; test: Test of intradermal administration in irradiated mice; type: in vivo, mouse; details: 7-week-old male C57BL/6NCrSlc mice, 5 Gy, 5 mg/ml in DMSO 200 μl (1000 μg) intradermally once a day, 5 times
Method: The hair on the lower back of 7-week-old male C57BL/6NCrSlc mice was removed. Sivelestat was dissolved in DMSO to be 5 mg/ml and 200 μl (=1000 μg) thereof was administered intradermally on back of the sivelestat group mice. On the back of the control group mice, 200 μl of DMSO was administered intradermally. After intradermal administration, the skin of the two groups of mice (day 0) was irradiated with a low voltage radiation of 5 Gy using CABINET X-RAY SYSTEM (Faxitron X-ray corporation). Up to day 4, the same medicinal agents described above were intradermally administered on the back once a day (for a total of 5 times), and weekly follow-ups were carried out after that.

[3] = tested on: irradiated mice; test: Application test on the back of irradiated mice; type: in vivo, mouse; details: 7-week-old male C57BL/6NCrSlc mice, 5 Gy, 10 mg/ml in DMSO 125 μl applied on the back once a day, 5 times
Method: The hair on the lower back of 7-week-old male C57BL/6NCrSlc mice was removed. Sivelestat was dissolved in DMSO to be 10 mg/ml and 125 μl (=[…]) thereof was applied on the back of the sivelestat group mice. On the back of the control group mice, 125 μl of DMSO was applied. After application on the back, the skin of the two groups of mice (day 0) was irradiated with a low voltage radiation of 5 Gy using CABINET X-RAY SYSTEM (Faxitron X-ray Corporation). Up to day 4, the same medicinal agents described above were applied on the back once a day (for a total of 5 times), and weekly follow-ups were carried out after that.

[4] = tested on: aged mice; test: Comparison of the hair-increasing effects of apocynin and minoxidil in aged mice; type: in vivo, mouse; details: 17-month-old female C57BL/6NCrSIc mice, 100 μl of 200 μM solution applied for 28 days, day 14; comparator Ri-UP X5 PLUS (minoxidil 5 g/100 ml)
Method: Apocynin (A727200; Tront Research Chemicals) was adjusted to the concentration of 20 mM with DMSO, and 200 LM apocynin solution (1% apocynin 20 mM, 49% water, 50% ethanol) was prepared as the solution to be applied on mice. As the control solution, 1% DMSO (Sigma Aldrich), 49% water, 50% ethanol was prepared. For the minoxidil solution, Ri-UP X5 PLUS® (5 g/100 ml, Taisho Pharmaceutical Co., Ltd.) was used. After six 17-month-old female C57BL/6[…] mice were anesthetized by inhalation of isoflurane (Pfizer), the hair on the back of the neck was removed. The three mice in the minoxidil treatment group were applied with 100 μl of minoxidil, and the apocynin treatment group with 100 μl of the 200 μM apocynin solution for 28 days. For the follow-ups, photo images of the representative first day (day 1) and the last day (day 28) are shown (FIG. 12).

[5] = tested on: aged mice; test: Hair-increasing effect in aged mice (application on the back of the neck); type: in vivo, mouse; details: 26-27-month-old female C57BL/6NCrSlc mice, 100 μl of 200 μM solution applied for 28 days, day 28
Method: Apocynin (A727200; Tront Research Chemicals) was adjusted to the concentration of 20 mM with DMSO, and 200 LM apocynin solution (1% apocynin 20 mM, 49% water, 50% ethanol) was prepared as the solution to be applied on mice. As the control solution, 1% DMSO (Sigma Aldrich), 49% water, 50% ethanol was prepared. After an anesthetic procedure was performed on five 27-month-old and one 26-month-old female C57BL/6[…] mice, hair on the back of the neck was removed. The three mice in the control solution treatment group were applied with 100 μl of the control solution, and the apocynin solution treatment group with 100 μl of the 200 μM apocynin solution for 28 days. For the follow-ups, photo images of the representative first day (day 1) and the last day (day 28) are shown (FIG. 11).

O=C1O[C@H]([C@@H](O)CO)C(O)=C1O [ascorbic acid]
Col17A1 expression (180 KDa band, Western blotting) ([1]; ascorbic acid 0.3-60 jag/ml, β-tubulin internal control): increase of Col17A1 was observed along with the increase of ascorbic acid

CC(C)(C)C(=O)Oc1ccc(S(=O)(=O)Nc2ccccc2C(=O)NCC(=O)[O-])cc1.O.O.O.O.[Na+] [Sivelestat, Monosodium N-{2-[4-(2,2-dimethylpropanoyloxy)-phenylsulfonylamino]benzoyl}aminoacetate tetrahydrate]
hair growth versus control group [2]: tendency to grow more | graying ([2]; 14 weeks and 28 weeks): suppression of graying was seen | hair growth versus control group [3]: tendency to grow faster | graying ([3]; 14 weeks and 28 weeks): suppression of graying was seen

COc1cc(C(C)=O)ccc1O [apocynin]
hair growth effect versus minoxidil [4]: significant hair growth effect compared to the minoxidil-administered group | Col17A1 expression (180 KDa band, Western blotting) ([1]; apocynin 1-60 μM, GAPDH internal control): increase of Col17A1 was observed along with the increase of apocynin | hair growth effect versus control solution [5]: significant hair growth effect compared to the control group

CNC(=O)[C@@H](NC(=O)[C@H](CC(C)C)[C@H](O)C(=O)NO)C(C)(C)C [Marimastat]
Col17A1 expression (180 KDa band, Western blotting) ([1]; Marimastat 3 μM, β-tubulin internal control): increase of Col17A1 was observed
